US20160243080A1, “FORMULATIONS OF ANGIOTENSIN RECEPTOR BLOCKERS” (priority 2015, published 2016)
Entries after “also recorded” stand apart in the source; their conditions may differ. Where two headings read alike, the source gives them in different places.

Legend:
[1] = cited from earlier work
[2] = system: healing skin of aged diabetic pigs; experiment: Masson's trichrome and H&E staining of skin sections from aged diabetic pigs; type: in vivo, pig
Description: Using Mason Trichrome (FIG. 22, panels A-H) and H&E stains (FIG. 22, panel I). Collagen content and other histological changes in healing skin were examined. Tensiometry was employed to quantify differences in tensile strength between placebo and valsartan treated wounds.

[3] = system: 5 cm full-thickness circular excisional wounds; experiment: Wound healing in aged diabetic Yucatan miniature swine: digital photography, planimetry, image analysis; type: in vivo, Sus scrofa
Description: Both gels are applied daily. • Wound measurements: On a daily basis, planimetry and digital photography are conducted to assess changes in wound size. • Upon complete closure: Healed wound tissue is collected and analyzed. The study had two treatment groups, which consisted of a test article treatment or a vehicle control treatment on three diabetic (alloxan-induced) Yucatan miniature swine. The acclimation period was 7 days. On Day 0, each study animal underwent surgery to create 8 (4 per side) 5 cm full-thickness circular excisional wounds on their dorsal surface. All wounds were initially topically treated with the same (Treatment A) compound once daily for the first 7 days (Day 0 through Day 6). Thereafter, 4 wounds per animal received daily topical administration of Treatment B, and the other 4 wounds received Treatment C for the duration of the study. All wound sites (8 per animal) were covered with one dressing type. All wounds were observed/evaluated up through final sample collection (Day 57). The experimental study design, including treatment groups and wound sites/time points, and variables to be evaluated and intervals are presented in Tables 1 through 3. On Day 0, the dorso-lateral back area of each animal was closely clipped with electric clippers. Each animal was prepared for surgery using alternating disinfecting scrubs and isopropyl alcohol rinses. The surgical area was draped and a sufficiently large hole(s) was created within the drape(s). The proposed wound sites were outlined using a sterile template and sterile marker. […] Refer to FIG. 3. • a. Using a surgical blade, eight 5 cm full-thickness circular excisional wounds were created (down to the fat layer). All excised tissue from each wound site was discarded. • b. Direct pressure was utilized to obtain hemostasis. • c. […] Each animal was monitored until it had completely recovered from the anesthesia. […] Each animal was monitored until it had completely recovered from anesthesia (if employed). […]

[4] = type: in vivo; details: body weight, blood pressure, blood glucose, serum chemistry and hematology
Description: Prior to this study, selected male animals had been castrated and fitted with vascular access ports (VAP) for diabetic induction. After these animals had fully recovered from VAP procedures, diabetes was chemically-induced using alloxan. Following induction, the glucose levels of the animals was monitored and regulated with Vetsulin (or equivalent). A glucometer and/or other appropriate device was used to determine glucose levels of the animals. VAP procedures, diabetic induction, and recovery periods were conducted under a separate SRC standard protocol prior to the initiation of this study. Glucose levels of all study animals were monitored and regulated at least once daily during the study to keep within targeted glucose range (target 200 to 600 mg/dL). Blood pressure was determined for each animal on Days 7, 8, 18, and 57 (prior to termination).
General in-cage/pen observations for mortality/moribundity were made at least daily.
Animals were weighed once during acclimation (Day −1) and again prior to termination (Day 57).
Day −5 (acclimation), Day 10 (pre-dose), Day 18 (pre-dose) and Day 57 (prior to termination); blood samples for CBC and serum chemistries were collected for clinical pathology analysis from each animal and analyzed by SRC. • Hematology: Blood samples (3 mL/animal) were collected from all animals. K3EDTA was used as anticoagulant. […]

wounds of AT2R^−/− mice = experiment: Wound healing in AT2R^−/− mice; type: in vivo, mouse
Description: Pharmacologically, ARBs and ACE inhibitors differ on their mechanism of action and the level at which they block RAS. While ARBs block RAS distally at the AT1R level, ACEi block the conversion of Angiotensin I to Angiotensin II and thereby diminishing available Angiotensin II to bind to either AT1R or AT2Rs. […] Collagen is a marker for assessing skin strength.

mitochondrial Cox IV = experiment: Mitochondrial content in aged diabetic pig wounds; type: in vivo
Description: (§1) An increase in a-SMA and phosphorylated VEGF Receptor 2 was also observed. Finally, the inventors have previously reported the presence of a functional mitochondrial angiotensin system within the mitochondria that played a role in mitochondrial bioenergetics regulation.

in vivo = details: Yucatan miniature swine, pig
Description: Plasma standards and samples (50 μL) were extracted in 500 μL methanol containing 100 nM losartan (internal standard). Extracts were centrifuged at 16000×g for 5 minutes at 4° C. to precipitate proteins. Extracts (500 μL) were transferred to a new tube and dried in vacuum at 45° C. for 90 minutes. Samples were reconstituted in 30% acetonitrile in water (50 μL) and centrifuged as above. Supernatants (45 μL) were transferred to a 96 well plate. Analytes (10 μL) were separated on an Agilent 1290 UPLC system with a c18 column using a gradient run of 50-95% acetonitrile over 2 minutes at 0.4 mL/minute and detected on an Agilent 6520 QTOF mass spectrometer. Standards within the quantifiable range were used to generate a standard curve.
Prior to surgery (Day 0), Day 10 (pre-dose), Day 18 (pre-dose), and Day 57 (prior to termination); blood samples (3 mL/animal) were collected, processed to plasma by centrifuging for approximately 15 minutes at 3000 rpm at 4° C., transferred into labeled cryovials, immediately frozen on dry ice, and shipped to the sponsor for future analysis.

TGFβ3 mRNA = experiment: mRNA expression in treated mouse wounds; type: in vivo; details: P<0.05
VEGF Receptor 2 = experiment: Proliferation and angiogenesis markers in aged diabetic pig wounds; type: in vivo
Description: as §1

p42/44 MAPK = experiment: as above; type: in vivo
Description: as §1

[5] = system: alpha-smooth muscle actin (α-SMA); experiment: as above; type: in vivo
Description: as §1

AT2R mRNA = experiment: mRNA expression in treated mouse wounds; type: in vivo
Smad2 = experiment: Immunohistochemistry of Smads in wounds of aged diabetic pigs; type: in vivo; details: pig wounds, vs placebo
Description: (§2) Although not completely characterized, wound healing is greatly influenced by subtle changes of transforming growth factor-beta (TGF-β) superfamily, which is strongly influenced by RAS. TGF-β signaling mediate the phosphorylation of Smad family proteins. Phosphorylated Smads then translocate to the nucleus with the common-mediator (co-Smad) Smad4. Additionally, Smad activity is also regulated by phosphorylation through non-receptor kinases such as p42/44 mitogen activating protein kinase (MAPK) and p38 MAPK. In chronic wounds, failure of TGF-β Smad 2 and 3 phosphorylation and reduction in p42/44 MAPK activity was associated with a slower proliferative rate and impaired healing. RAS has been tightly linked to TGFβ activity but the specific effects of AT1R on the different Smads during wound healing are not known.

Smad3 = experiment: as above; type: in vivo; details: pig wounds, vs placebo
Description: as §2

[6] = system: phosphorylated Smad1, 5 and 9; experiment: as above; type: in vivo; details: pig wounds, vs placebo
Description: as §2

Smad1 = experiment: as above; type: in vivo; details: pig wounds, vs placebo
Description: as §2

[7] = system: wounds of diabetic (Leprdb) mice; experiment: Mouse model wound healing experiments, planimetric wound closure; type: in vivo; details: topical, applied from 7 days after wounding (proliferation/remodeling phase)
Description: In FIG. 11, the “ratio” (y-axis) reflects the percentage of wound closure as compared to the wound size on day 7 in the same animal.

[8] = system: healing skin of aged diabetic pigs; experiment: Tensiometry of healed pig skin; type: in vivo; details: vs placebo
Description: At termination, an approximately 8 mm×16 mm tensiometry sample was collected from the dorsal side of each wound site that spanned the cranial to caudal aspect of the wound for analysis. This procedure was performed and data maintained by sponsor personnel. No details of analysis or results were included in this in-life report. […] Using Mason Trichrome (FIG. 22, panels A-H) and H&E stains (FIG. 22, panel I). Collagen content and other histological changes in healing skin were examined. Tensiometry was employed to quantify differences in tensile strength between placebo and valsartan treated wounds.

wound = experiment: Diabetic mouse and pig wound models, timing of topical application (summary statements); type: in vivo; details: first 1-7 days after wounding

CCCCC(=O)N(Cc1ccc(-c2ccccc2-c2nnn[nH]2)cc1)[C@H](C(=O)O)C(C)C [valsartan]
expected blood level of Valsartan in a human on oral Valsartan [1]: 4 to 5 µM | zone of dermal collagen [2]: expanded zone of dermal collagen | dermal collagen layer thickness ([2]; P<0.001 vs placebo): 6±0.2 mm | epidermal layer thickness ([2]; P<0.001 vs placebo): 192±11 μm | collagen fiber arrangement (ultrastructural analysis) ([2]; vs placebo): more organized collagen fiber arrangement | epithelization (automated digital analysis of wound images) ([3]; aged diabetic pigs, vs placebo): higher rates of epithelization | slough at the wound base (automated digital analysis of wound images) ([3]; aged diabetic pigs, vs placebo): lower accumulation of slough at the wound base; also recorded: clearance of slough | healing rate / wound closure rate (planimetry) as compared to placebo ([3]; diabetic pigs, daily topical from Day 7, 57 days): faster wound closure rates | tolerability / adverse animal health effects [4]: no observed adverse animal health effects | wound healing / wound closure in AT2R^−/− mice (wounds of AT2R^−/− mice): delayed healing | mitochondrial Cox IV / mitochondrial numbers (mitochondrial Cox IV): significant increase in the mitochondrial numbers | mitochondrial Cox IV / mitochondrial numbers (mitochondrial Cox IV; listed as topical Valsartan): increase in mitochondrial COX IV | concentration at 57 day (in vivo): < 1 nM | decrease in TGFβ3 mRNA (TGFβ3 mRNA): 0.6 fold | phosphorylated VEGF Receptor 2 (VEGF Receptor 2): increase | phosphorylation of p42/44 MAPK (p42/44 MAPK): enhanced phosphorylation of p42/44 MAPK | α-SMA [5]: increase | AT2R mRNA (AT2R mRNA): statistically non-significant increase | Smad2 expression (Smad2): decrease in the expression | Smad2 expression (Smad2; listed as topical Valsartan): inhibited | Smad3 expression (Smad3): higher expression | phosphorylated Smad3 (Smad3): higher expression | Smad3 expression (Smad3; listed as topical Valsartan): activated | phosphorylated Smad3 (Smad3; listed as topical Valsartan): increase in phosphorylated Smad3 | Smad1, 5, 9 phosphorylation [6]: decreased; also recorded: decrease in the expression | Smad1 expression (Smad1): decrease in the expression | Smad1 expression (Smad1; listed as topical Valsartan): inhibited | wound healing / wound closure [7]: more efficacious in accelerating wound healing compared to losartan | tensile strength of healing skin [8]: higher tensile strength | wound healing when applied during the inflammatory phase (wound): made the wounds bigger | wound healing when applied during the inflammatory phase (wound; listed as topical valsartan): significantly impaired wound healing
